# Laboratory results taken from article PMC6990405, “Synthesis and Structure–Activity relationship of 1-(5-isoquinolinesulfonyl)piperazine analogues as inhibitors of Mycobacterium tuberculosis IMPDH” (European Journal of Medicinal Chemistry, 2019).
# Like-named read-outs stand apart in the source and are kept apart here.
# Tests used:
# [1] = system: wild-type M. tuberculosis strain H37Rv; assay: microbe, parasite or virus in culture; assay type: cell-based; conditions: for fold reduction in whole-cell activity: relative to compound 41
# Mtb IMPDH = target: T1, Mtb IMPDH (Mycobacterium tuberculosis, UniProt P9WKI7); assay: IMPDH biochemical assay (inhibition of Mtb GuaB2); conditions: for IC50: Mtb IMPDH (GuaB2) enzyme
# T1 construct: made in house
# T1 sequence (P9WKI7 whole entry, looked up): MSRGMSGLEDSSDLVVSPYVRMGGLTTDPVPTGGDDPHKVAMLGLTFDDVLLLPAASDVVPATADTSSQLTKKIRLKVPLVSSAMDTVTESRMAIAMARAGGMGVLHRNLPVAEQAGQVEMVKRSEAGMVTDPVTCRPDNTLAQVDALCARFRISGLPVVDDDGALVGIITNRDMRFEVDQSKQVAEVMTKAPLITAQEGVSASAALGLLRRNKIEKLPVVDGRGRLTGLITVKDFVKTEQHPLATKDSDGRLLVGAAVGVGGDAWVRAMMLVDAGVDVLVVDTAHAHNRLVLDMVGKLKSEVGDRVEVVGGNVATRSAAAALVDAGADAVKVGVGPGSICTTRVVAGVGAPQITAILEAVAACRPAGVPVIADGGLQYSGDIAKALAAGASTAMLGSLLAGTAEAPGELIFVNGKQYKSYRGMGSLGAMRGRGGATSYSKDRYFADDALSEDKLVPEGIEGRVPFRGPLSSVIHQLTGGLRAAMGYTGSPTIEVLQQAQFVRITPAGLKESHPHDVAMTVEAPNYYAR
# [2] = Mycobacterium tuberculosis, H37RV, wild-type M. tuberculosis H37Rv, read-out: MIC90 against WT
# [3] = Mycobacterium tuberculosis, H37RV, read-out: MIC90 against WT, wild-type M. tuberculosis H37Rv
# [4] = wild-type M. tuberculosis H37Rv, read-out: MIC90 against WT
Structure (SMILES),"MIC90 [1, 2] [µM]",IC50 (Mtb IMPDH) [µM],other results
"N#Cc1cccc(C(=O)N2CCN(S(=O)(=O)c3cccc4cnccc34)CC2)c1 [Compound 16, 3-[4-(isoquinoline-5-sulfonyl)piperazine-1-carbonyl]benzonitrile]",25,8.6 ± 0.5,
"Cc1ccc(NC(=O)N2CCN(S(=O)(=O)c3cccc4cnccc34)CC2)cc1Cl [Compound 38, N-(3-chloro-4-methylphenyl)-4-(isoquinolin-5-ylsulfonyl)piperazine-1-carboxamide]",100,1.6 ± 0.2,
"O=C(NCCNS(=O)(=O)c1cccc2cnccc12)C1CCCCC1 [Compound 2, N-{2-[(isoquinoline-5-sulfonyl)amino]ethyl}cyclohexanecarboxamide]",,0.5 ± 0.02,"MIC90 [1, 3]: 50 µM"
"O=C(Nc1ccc2c(c1)OCO2)N1CCN(S(=O)(=O)c2cccc3cnccc23)CC1 [Compound 41, N-(benzo[d][1,3]dioxol-5-yl)-4-(isoquinolin-5-ylsulfonyl)piperazine-1-carboxamide]",6.3,0.08 ± 0.005,
"CC1(C(=O)N2CCN(S(=O)(=O)c3cccc4cnccc34)CC2)CCCCC1 [Compound 12, [4-(isoquinoline-5-sulfonyl)piperazin-1-yl](1-methylcyclohexyl)methanone]",250,2.4 ± 0.01,
"O=C(Nc1ccc(F)c(Cl)c1)N1CCN(S(=O)(=O)c2cccc3cnccc23)CC1 [Compound 36, N-(3-chloro-4-fluorophenyl)-4-(isoquinolin-5-ylsulfonyl)piperazine-1-carboxamide]",31.2,0.042 ± 0.002,
"O=C(c1cccc([N+](=O)[O-])c1)N1CCN(S(=O)(=O)c2cccc3cnccc23)CC1 [Compound 18, [4-(isoquinoline-5-sulfonyl)piperazin-1-yl](3-nitrophenyl)methanone]",12.5,1.1 ± 0.1,
"O=C(Nc1ccc(Cl)c([N+](=O)[O-])c1)N1CCN(S(=O)(=O)c2cccc3cnccc23)CC1 [Compound 35, N-(4-chloro-3-nitrophenyl)-4-(isoquinolin-5-ylsulfonyl)piperazine-1-carboxamide]",12.5,5.6 ± 0.2,
"COc1ccc(CC(=O)N2CCN(S(=O)(=O)c3cccc4cnccc34)CC2)c(OC)c1 [Compound 27, 1-[4-(isoquinoline-5-sulfonyl)piperazin-1-yl]-2-(2,4-dimethoxyphenyl)ethan-1-one]",250,1.98 ± 0.1,
"COc1cccc(CC(=O)N2CCN(S(=O)(=O)c3cccc4cnccc34)CC2)c1 [Compound 26, 1-[4-(isoquinoline-5-sulfonyl)piperazin-1-yl]-2-(3-methoxyphenyl)ethan-1-one]",250,2.6 ± 0.2,
"N#Cc1cccc(NC(=O)N2CCN(S(=O)(=O)c3cccc4cnccc34)CC2)c1 [Compound 31, N-(3-cyanophenyl)-4-(isoquinolin-5-ylsulfonyl)piperazine-1-carboxamide]",15.6,0.15 ± 0.03,
"O=C(c1cc([N+](=O)[O-])cc([N+](=O)[O-])c1)N1CCN(S(=O)(=O)c2cccc3cnccc23)CC1 [Compound 19, [4-(isoquinoline-5-sulfonyl)piperazin-1-yl](3,5-dinitrophenyl)methanone]",12.5,1.4 ± 0.01,
"O=C(C1CCCCC1)N1CCN(S(=O)(=O)c2ccc3ccccc3c2)CC1 [Compound 8, Cyclohexyl[4-(naphthalene-2-sulfonyl)piperazin-1-yl]methanone]",> 100,1.6 ± 0.1,
"O=C(Nc1ccc(Cl)cc1)N1CCN(S(=O)(=O)c2cccc3cnccc23)CC1 [Compound 33, N-(4-chlorophenyl)-4-(isoquinolin-5-ylsulfonyl)piperazine-1-carboxamide]",250,15 ± 0.5,
"O=C(CC1CCC2(CC1)OCCO2)N1CCN(S(=O)(=O)c2cccc3cnccc23)CC1 [Compound 23, 2-(1,4-dioxaspiro[4.5]decan-8-yl)-1-[4-(isoquinoline-5-sulfonyl)piperazin-1-yl]ethan-1-one]",250,3.3 ± 0.2,
"O=C(NCCNS(=O)(=O)c1cccc2cnccc12)c1cc([N+](=O)[O-])cc([N+](=O)[O-])c1 [Compound 21, N-{2-[(isoquinoline-5-sulfonyl)amino]ethyl}-3,5-dinitrobenzamide]",15.6,0.3 ± 0.02,
"N#Cc1ccc(C(=O)N2CCN(S(=O)(=O)c3cccc4cnccc34)CC2)cc1 [Compound 17, 4-[4-(isoquinoline-5-sulfonyl)piperazine-1-carbonyl]benzonitrile]",100,16.5 ± 0.5,
"O=C(CC1CCCCC1)N1CCN(S(=O)(=O)c2cccc3cnccc23)CC1 [Compound 22, 2-Cyclohexyl-1-(4-(isoquinolin-5-ylsulfonyl)piperazin-1-yl)ethan-1-one]",31.2,0.23 ± 0.02,
"O=C(NCCNS(=O)(=O)c1cccc2cnccc12)C1CC1 [Compound 9, N-{2-[(isoquinoline-5-sulfonyl)amino]ethyl}cyclopropanecarboxamide]",100,6.9 ± 0.2,

Structure (SMILES),"MIC90 [1, 2] [µM]",IC50 (Mtb IMPDH) [µM],other results
"O=S(=O)(c1cccc2cnccc12)N1CCN(C(=S)Nc2ccc3c(c2)OCO3)CC1 [Compound 42, N-(benzo[d][1,3]dioxol-5-yl)-4-(isoquinolin-5-ylsulfonyl)piperazine-1-carbothioamide]",50,1.1 ± 0.1,fold reduction in whole-cell activity [1]: 8 fold
"N#Cc1cccc(CC(=O)N2CCN(S(=O)(=O)c3cccc4cnccc34)CC2)c1 [Compound 24, 3-{2-[4-(isoquinoline-5-sulfonyl)piperazin-1-yl]-2-oxoethyl}benzonitrile]",125,5.96 ± 0.2,
"Cc1cccc(CC(=O)N2CCN(S(=O)(=O)c3cccc4cnccc34)CC2)c1 [Compound 28, 1-(4-(isoquinolin-5-ylsulfonyl)piperazin-1-yl)-2-(m-tolyl)ethan-1-one]",250,11.5 ± 0.3,
"O=C(c1ccccc1)N1CCN(S(=O)(=O)c2cccc3cnccc23)CC1 [Compound 15, [4-(isoquinoline-5-sulfonyl)piperazin-1-yl](phenyl)methanone]",> 100,8.1 ± 0.1,"MIC90 [1, 4]: >100 µM"
"Cc1cccc(Cl)c1NC(=O)N1CCN(S(=O)(=O)c2cccc3cnccc23)CC1 [Compound 40, N-(2-chloro-6-methylphenyl)-4-(isoquinolin-5-ylsulfonyl)piperazine-1-carboxamide]",250,3.4 ± 0.1,
"Cc1ccccc1CNC(=O)N1CCN(S(=O)(=O)c2cccc3cnccc23)CC1 [Compound 48, 4-(isoquinolin-5-ylsulfonyl)-N-(2-methylbenzyl)piperazine-1-carboxamide]",3.9,0.27 ± 0.03,
"Cc1cc2c(S(=O)(=O)N3CCN(C(=O)C4CCCCC4)CC3)cccc2cn1 [Compound 6, Cyclohexyl[4-(3-methylisoquinoline-5-sulfonyl)piperazin-1-yl]methanone]",,> 100,"MIC90 [1, 3]: 100 µM; MIC90 [1, 4]: >100 µM"
"O=C(Nc1cccc(C(F)(F)F)c1)N1CCN(S(=O)(=O)c2cccc3cnccc23)CC1 [Compound 32, 4-(isoquinolin-5-ylsulfonyl)-N-(3-(trifluoromethyl)phenyl)piperazine-1-carboxamide]",62.5,0.08 ± 0.005,
"O=C(C1CCCCC1)N1CCC(NS(=O)(=O)c2cccc3cnccc23)CC1 [Compound 5, N-[1-(cyclohexanecarbonyl)piperidin-4-yl]isoquinoline-5-sulfonamide]",> 100,14.7 ± 0.3,
"O=C(C1CCCCC1)N1CCN(S(=O)(=O)c2cccc3cnccc23)CC1 [Compound 1, Cyclohexyl[4-(isoquinoline-5-sulfonyl)piperazin-1-yl]methanone]",2,0.1 ± 0.01,
"O=C(NCCNS(=O)(=O)c1cccc2cnccc12)C1CCC1 [Compound 10, N-{2-[(isoquinoline-5-sulfonyl)amino]ethyl}cyclobutanecarboxamide]",100,2.7 ± 0.1,
"O=C(OCc1ccccc1)N1CCN(S(=O)(=O)c2cccc3cnccc23)CC1 [Compound 49, Benzyl 4-(isoquinolin-5-ylsulfonyl)piperazine-1-carboxylate]",100,0.8 ± 0.05,
"COc1cccc(CNC(=O)N2CCN(S(=O)(=O)c3cccc4cnccc34)CC2)c1 [Compound 47, 4-(isoquinolin-5-ylsulfonyl)-N-(3-methoxybenzyl)piperazine-1-carboxamide]",3.1,0.035 ± 0.002,fold greater potency than 1 (IMPDH) (Mtb IMPDH; relative to compound 1): ~3 fold
"COc1cc(C(=O)N2CCN(S(=O)(=O)c3cccc4cnccc34)CC2)cc(OC)c1OC [Compound 20, [4-(isoquinoline-5-sulfonyl)piperazin-1-yl](3,4,5-trimethoxyphenyl)methanone]",15.6,12 ± 0.5,
"CC1CN(S(=O)(=O)c2cccc3cnccc23)CCN1C(=O)Nc1ccc2c(c1)OCO2 (centres unmarked) [Compound 45, N-(benzo[d][1,3]dioxol-5-yl)-4-(isoquinolin-5-ylsulfonyl)-2-methylpiperazine-1-carboxamide]",12.5,0.12 ± 0.02,
"CC1CN(S(=O)(=O)c2cccc3cnccc23)CCN1C(=O)C1CCCCC1 (centres unmarked) [Compound 3, Cyclohexyl[4-(isoquinoline-5-sulfonyl)-2-methylpiperazin-1-yl]methanone]",100,> 100,
"O=C(Nc1cccc(Cl)c1Cl)N1CCN(S(=O)(=O)c2cccc3cnccc23)CC1 [Compound 37, N-(2,3-dichlorophenyl)-4-(isoquinolin-5-ylsulfonyl)piperazine-1-carboxamide]",125,0.9 ± 0.06,
"O=C(Nc1ccc2c(c1)OCO2)N1CCCN(S(=O)(=O)c2cccc3cnccc23)CC1 [Compound 44, 4-(isoquinoline-5-sulfonyl)-N-(2H-1,3-benzodioxol-5-yl)-1,4-diazepane-1-carboxamide]",12.5,0.6 ± 0.02,fold reduction in whole-cell activity [1]: 2 fold; fold reduction in biochemical activity (Mtb IMPDH; relative to compound 41): 8 fold
